Reference: patent publication US11478416B2, “Ingredients for use in personal care compositions” (Croda, Inc., priority 2016, dated 2022)
“Also recorded” adds a separate entry of the source.

Assay: Frizz control test, panel ranking of tresses at 75% RH
Conditions: from panel ranking
Procedure: The formulations H to M as set out in Table 4 were prepared. Each hair conditioner formulation was prepared by combining the Part A ingredients while mixing and heating to 75-80° C., and separately combining the Part B ingredients and heating to the same temperature. The Part A and Part B ingredients were then combined while mixing at temperature and allowed to cool to 40° C. Once at 40° C., the Part C ingredients were added and the pH adjusted to about 4.5±0.5 using lactic acid.
For each formulation H to M, 7 Brazilian curly hair tresses available from International Hair Importers Inc., NYC, were cut to 1.5 cm wide and 20 cm long.
The tresses were washed with a simple cleansing shampoo (SLES/Betaine shampoo) using a 1:10 w/w shampoo to hair ratio for 1 minute. The tresses were then rinsed with warm water for 1 minute or until free of foam. 3 g of the respective formulation was then massaged into the hair tresses for 1 minute. The treated tresses were left to sit for 20 minutes and then the formulations rinsed out of the hair for 45 seconds. Once rinsed, the tresses were blown dry using a blow dryer and round brush, and then flat-ironed using a ceramic iron at 400° F. for 5 passes. […]
The panelists were asked to rank the tresses from 1 (least frizz) to 6 (most frizz). The mode and average of the panelists' rankings were calculated for each to give the overall ranking.

Substance: Isostearic Acid—DETA Tertiary Amine [Example 3a]
- frizz control, conclusion in words: resisted frizz the best; also recorded: aids in frizz control
